The values that follow come from patent US20190282541A1, “USE OF ERIBULIN AND HISTONE DEACETYLASE INHIBITORS IN THE TREATMENT OF CANCER” (EISAI R&D MANAGEMENT CO., LTD., priority 2016, published 2019).

Like-named read-outs stand apart in the source and are kept apart here.

Common to all, as to assay type: cell-based
Test [1] concerns MCF-7 human breast cancer cells. The test is described as follows: Single agent growth inhibition (Cell Titer-Glo proliferation). Particulars: 72 hours. On the procedure: (§1) The growth inhibitory activities of two test agents, eribulin and entinostat, were determined alone and in combination against 12 human breast cancer cell lines (Table 1). The human breast tumor cell lines were selected based on their profile characteristics of being either human epidermal growth factor receptor 2 negative (Her2') and estrogen receptor positive (ER^+) or Triple Negative (Her2^-, ER^-, and progesterone receptor negative [PR^-]). Activities of individual agents were determined by curve-fitting the concentration of agent that inhibits cell growth by 50% compared to the control cells in a four parameter-logistic equation, whereas agent combinations were determined by the method of (Chou and […] Advances in Enzyme Regulation 22:27-55, 1984), and analyzed with CalcuSyn software. Fa, the fraction of affected drug targets at a given drug concentration, was calculated from the fractional decrease. Each agent was tested individually to determine the median-effect dose, Dm, (or EC50, the 50% effect concentration). For combination treatments, drug solutions were mixed at ratios providing approximately equipotent concentrations based upon relative Dm, and this mixture was serially diluted to yield test concentrations. The Combination Index (CI), computed from ratios of the concentrations of mixed and unmixed drugs that produce the same Fa, indicates whether inhibition is additive, synergistic, or antagonistic. In whole-cell assays, inhibitor interactions are complex (mixed), rather than mutually exclusive (purely competitive) or nonexclusive (purely non-competitive), CI values for both types of inhibition are reported to define the range of possible values. […] Finally, in Experiment 3, we determined the antiproliferative activity of the study agents in combination against the panel of human tumor cell lines. […] We further analyzed quadruplicate samples over a seven point dose response range. MCF-7 human breast cancer cells were cultured in RPMI 1640 medium supplemented with 10% fetal bovine serum (FBS), 2 mM glutamine, 10 mM 4-(2-hydroxyethyl)-1-piperazineethanesulfonic acid (HEPES), 0.075% sodium bicarbonate, 100 units/mL sodium penicillin G, 100 μg/mL streptomycin sulfate and 25 μg/mL gentamicin. T-47D human breast cancer cells were cultured in RPMI 1640 medium supplemented with 10% FES. 4.5 g/L glucose. 2 mM glutamine. 10 mM HEPES, 0.2 units/mL Insulin, 1 mM sodium pyruvate, 100 units/mL sodium penicillin G, 100 streptomycin sulfate and 25 μg/mL gentamicin, ZR-75-1 human breast cancer cells were cultured in RPMI 1640 medium supplemented with 10% FBS, 4.5 g/L. glucose, 2 mM glutamine, 10 […] HEPES, 1 mM sodium pyruvate, 100 units/mL sodium penicillin G, 100 μg/mL streptomycin sulfate and 25 μg/mL gentamicin. […] HCC70 human breast cancer cells were cultured in RPMI1640 medium supplemented with 10% FBS, 2 mM glutamine, 4.5 g/L glucose, 10 mM HEPES, 0.075% sodium bicarbonate, 1 mM sodium pyruvate, 100 units/mL sodium penicillin 0, 100 μg/mL streptomycin sulfate and 25 μg/mL gentamicin. […] The tumor cells were cultured in tissue culture flasks in a humidified incubator at 37° C., in an atmosphere of 5% CO2 and 95% air; except for the MDA-MB-134-VI, MDA-MB-175-VII, MDA-MB-415, and MDA-MB-436, these cells were cultured at 37° C. in 100% air and no additional CO2. The selected human tumor cells were seeded at 2,000-5,000 cells/well in a clear polystyrene 96-well microculture plate (Corning® Costar® 96-well flat bottom plate, Cat. No. 3997) in a total volume of 90 μL per well. After 24 hours of incubation in a humidified incubator at 37° C. with 5% CO2 and 95% air (except for the MDA-MB-134-VI, MDA-MB-175-VII, MDA-MB-415, and MDA-MB-436, these cells were cultured at 37° C. in 100% air, no additional CO2), 10 μL of the 10× drug prep was added. […]
A general note: ATP-based viability assays read luminescence as a measure of living cells.

Test [2] concerns MDA-MB-415 human breast cancer cells. Described as above. Particulars: 144 hours. On the procedure:
as §1

Test [3] deals with HCC70 human breast cancer cells. The description is as above. The conditions noted are these: 72 hours. On the procedure:
as §1

The test system of test [4] is BT-549 human breast cancer cells. The test is described as above. Particulars: 72 hours. The method, then:
as §1

Test [5] deals with MDA-MB-175VII human breast cancer cells. The description is as above. Particulars: 144 hours. The method, then:
as §1

For test [6], the system named is T-47D human breast cancer cells. The description is as above. The conditions noted are these: T47D, 72 hours. On the procedure:
as §1

In test [7] the test system is ZR-75-1 human breast cancer cells. Described as above. Particulars: Experiment 2, narrow concentration range, 72 hours. On the procedure:
as §1

Test [8] relates to MDA-MB-134VI human breast cancer cells. The description is as above. The conditions noted are these: 144 hours. On the procedure:
as §1

The subject of test [9] is Hs578t human breast cancer cells. The test is described as above. Particulars: Hs-578T, 72 hours. On the procedure:
as §1

Test [10] relates to MDA-MB-436 human adenocarcinoma derived cancer cells. The description is as above. Particulars: 144 hours. The method, then: as §1
For test [11], the system named is HCC1806 human breast cancer cells. The description is as above. Particulars: 72 hours. The method, then: as §1
In test [12] the test system is MDA-MB-231 human breast cancer cells. The test is described as above. The conditions noted are these: 72 hours. On the procedure: as §1
The subject of test [13] is panel of 12 human breast cancer cell lines. The test is described as follows: Single agent inhibitory activity across the cell line panel. The conditions noted are these: all 12 cell lines, Experiments 1 and 2. On the procedure: The growth inhibitory activities of two test agents, eribulin and entinostat, were determined alone and in combination against 12 human breast cancer cell lines (Table 1). The human breast tumor cell lines were selected based on their profile characteristics of being either human epidermal growth factor receptor 2 negative (Her2') and estrogen receptor positive (ER^+) or Triple Negative (Her2^-, ER^-, and progesterone receptor negative [PR^-]). Activities of individual agents were determined by curve-fitting the concentration of agent that inhibits cell growth by 50% compared to the control cells in a four parameter-logistic equation, whereas agent combinations were determined by the method of (Chou and […] Advances in Enzyme Regulation 22:27-55, 1984), and analyzed with CalcuSyn software. Fa, the fraction of affected drug targets at a given drug concentration, was calculated from the fractional decrease. […] Finally, in Experiment 3, we determined the antiproliferative activity of the study agents in combination against the panel of human tumor cell lines. […] We further analyzed quadruplicate samples over a seven point dose response range. […] The medium/Cell Titer-Glo® reagent was transferred to a white polystyrene 96-well microculture plate (Corning® Costar® 96-well flat bottom plate, Cat. No. 3917) before determining luminescence on the Tecan GENios microplate. […]

Setting [14] is: MCF7, Experiment 1, wide concentration range, read-out: Wide range IC50.
Where [15] appears, read: MCF7, Experiment 2, narrow concentration range, read-out: Narrow range IC50.
The mark [16] stands for this setting: Experiment 1, wide concentration range, read-out: Wide range IC50.
[17] abbreviates: Experiment 2, narrow concentration range, read-out: Narrow range IC50.

What is called IC50 is the concentration that inhibits the measured activity by half.

Turning to `Nc1ccccc1NC(=O)c1ccc(CNC(=O)OCc2cccnc2)cc1` [entinostat, pyridin-3-yl methyl N-[[4-[(2-aminophenyl)carbarnoyl]phenyl]methyl carbamate], the IC50 stood at 540 nM in test [1] (setting [14]); 570 nM in test [1] (setting [15]); 92.1 nM in [2] (setting [16]); 140 nM in test [2] (setting [17]); 1450 nM in test [3] (setting [16]); 1110 nM in test [3] (setting [17]). The IC50 was 1250 nM in [4] (setting [16]); 1500 nM in [4] (setting [17]); 210 nM in test [5] (setting [16]); 1170 nM in test [5] (setting [17]); 1600 nM in test [6] (setting [16]); 1780 nM in test [6] (setting [17]). Besides, the IC50 in test [7] turned out to be 4.95 µM; in test [8] (setting [16]) it was 390 nM; in test [8] (setting [17]), 800 nM; in test [9] (setting [16]), 1100 nM; in [9] (setting [17]), 1400 nM; in test [10] (setting [16]), 810 nM. Also, the IC50 in test [10] (setting [17]) is 1370 nM; in [11] (setting [16]), 550 nM; in [11] (setting [17]), 1220 nM; in test [12] (setting [16]) it was 610 nM; in test [12] (setting [17]) it was 940 nM.
Take `C=C1C[C@@H]2CC[C@@]34C[C@H]5O[C@H]6[C@@H](O3)[C@H]3O[C@H](CC[C@@H]3O[C@H]6[C@H]5O4)CC(=O)C[C@@H]3[C@@H](OC)[C@@H](C[C@H](O)CN)O[C@H]3C[C@H]3O[C@@H](CC[C@@H]1O2)C[C@@H](C)C3=C` [eribulin]: the IC50 in [1] (setting [14]) turned out to be 0.22 nM; in [1] (setting [15]) it was 0.37 nM; in test [2] (setting [16]), 0.64 nM; in test [2] (setting [17]), 0.57 nM; in [3] (setting [16]), 0.35 nM; in test [4] (setting [16]), 0.23 nM. For the same compound, the 50% inhibitory concentration (IC50) came out at 0.39 nM in [4] (setting [17]); 0.55 nM in test [5] (setting [16]); 1.09 nM in test [5] (setting [17]); 1.15 nM in test [6] (setting [17]); 0.62 nM in test [8] (setting [16]); 0.88 nM in test [8] (setting [17]). Moreover, the IC50 in [9] (setting [16]) is 0.39 nM; in [9] (setting [17]) it was 0.67 nM; in test [10] (setting [16]), 2.82 nM; in [10] (setting [17]), 3.2 nM; in test [11] (setting [16]), 0.25 nM; in test [11] (setting [17]) it was 0.3 nM. For the same compound, the IC50 in [12] (setting [16]) stood at 0.26 nM; in [12] (setting [17]), 0.52 nM. The “Relative potency of single agents” value in [13] is “more potent than entinostat in all cell lines”.
